Biological target: T1, Human plasma kallikrein (Homo sapiens, UniProt P03952)
T1 construct: yields a heavy chain (371 amino acids) and a light chain (248 amino acids); purchased Enzyme Research Laboratories
Test: Plasma Kallikrein Assay
Format: biochemical
Details: purified Human plasma kallikrein 0.5 nM, substrate Acetyl-K-P-R-AFC; read-out: PKal IC50
Protocol: The effectiveness of a compound of the present invention as an inhibitor of plasma kallikrein can be determined using a relevant purified serine protease, and an appropriate synthetic substrate. The rate of hydrolysis of the chromogenic or fluorogenic substrate by the relevant serine protease was measured both in the absence and presence of compounds of the present invention. Assays were conducted at rt or at 37° C. […] A decrease in the rate of fluorescence change in the presence of inhibitor is indicative of enzyme inhibition. Such methods are known to one skilled in the art. The results of this assay are expressed as the half-maximal inhibitory concentrations (IC50), or the inhibitory constant, Ki.
Plasma kallikrein determinations were made in 50 mM HEPES buffer at pH 7.4 containing 150 mM NaCl, 5 mM CaCl2), and 0.1% PEG 8000 (polyethylene glycol; Fisher Scientific). Determinations were made using purified Human plasma kallikrein at a final concentration of 0.5 nM (Enzyme Research Laboratories) and the synthetic substrate, Acetyl-K-P-R-AFC (Sigma #C6608) at a concentration of […].
Times required to achieve equilibration between enzyme and inhibitor were determined in control experiments. […] IC50 was determined by inflection point from a four parameter logistic curve fit. Ki was calculated using the Cheng Prusoff equation, Ki=IC50/(1+([S]/Km)).

T1 sequence (P03952 391-638 limits assumed): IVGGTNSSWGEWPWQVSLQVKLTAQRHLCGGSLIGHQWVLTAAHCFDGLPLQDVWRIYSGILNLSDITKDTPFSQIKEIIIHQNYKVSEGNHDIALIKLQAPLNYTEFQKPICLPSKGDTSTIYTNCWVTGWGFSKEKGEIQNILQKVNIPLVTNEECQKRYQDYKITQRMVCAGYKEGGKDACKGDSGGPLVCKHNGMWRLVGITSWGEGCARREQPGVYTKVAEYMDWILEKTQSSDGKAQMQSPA
T1 sequence (P03952 20-390 partner limits assumed): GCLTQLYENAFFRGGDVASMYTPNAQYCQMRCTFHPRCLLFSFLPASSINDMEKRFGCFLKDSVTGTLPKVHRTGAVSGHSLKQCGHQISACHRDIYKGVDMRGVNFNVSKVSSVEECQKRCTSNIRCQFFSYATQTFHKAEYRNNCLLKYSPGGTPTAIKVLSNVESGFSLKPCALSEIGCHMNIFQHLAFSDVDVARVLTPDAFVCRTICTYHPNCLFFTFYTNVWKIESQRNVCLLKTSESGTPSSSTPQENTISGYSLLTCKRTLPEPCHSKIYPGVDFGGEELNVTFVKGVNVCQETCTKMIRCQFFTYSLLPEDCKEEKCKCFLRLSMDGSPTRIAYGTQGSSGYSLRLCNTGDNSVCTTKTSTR

| SMILES | IC50 [nM] |
| --- | --- |
| Cn1cc(-c2ccc(Cc3nnc(C(=O)N4CCC[C@@]5(C4)OC(=O)Nc4ccc(Cl)c(F)c45)[nH]3)cc2)cn1 [Example 91, (R)-6-Chloro-5-fluoro-1′-(5-(4-(1-methyl-1H-pyrazol-4-yl)benzyl)-4H-1,2,4-triazole-3-carbonyl)spiro[benzo[d][1,3]oxazine-4,3′-piperidin]-2(1H)-one] | 25.2 |
| CC(c1ccccc1)n1cc(C(=O)N2CCC[C@@]3(C2)OC(=O)Nc2ccc(Cl)c(F)c23)cn1 (single isomer, unassigned) [Example 24] | 38.3 |
| C[C@@H](c1cccc(Cl)c1)n1cc(C(=O)N2CCC[C@@]3(C2)OC(=O)Nc2ccc(Cl)c(F)c23)cn1 [Example 27, (R)-6-Chloro-1′-(1-((S)-1-(3-chlorophenyl)ethyl)-1H-pyrazole-4-carbonyl)-5-fluorospiro[benzo[d][1,3]oxazine-4,3′-piperidin]-2(1H)-one] | 10.9 |
| O=C1Nc2ccc(Cl)c(F)c2[C@@]2(CCCN(C(=O)c3cnn(Cc4ccc5c(c4)OCCO5)c3)C2)O1 [Example 54, (R)-6-Chloro-1′-(1-((2,3-dihydrobenzo[b][1,4]dioxin-6-yl)methyl)-1H-pyrazole-4-carbonyl)-5-fluorospiro[benzo[d][1,3]oxazine-4,3′-piperidin]-2(1H)-one] | 29.8 |
| CC1(C)CN(C(=O)c2cnn(Cc3ccccc3)c2)C[C@]2(C1)OC(=O)Nc1ccc(Cl)c(F)c12 [Example 21, (R)-1′-(1-Benzyl-1H-pyrazole-4-carbonyl)-6-chloro-5-fluoro-5′,5′-dimethylspiro[benzo[d][1,3]oxazine-4,3′-piperidin]-2(1H)-one] | 12.1 |
| O=C1Nc2ccc(Cl)c(F)c2[C@@]2(CCCN(C(=O)c3cnn(Cc4noc5ccccc45)c3)C2)O1 [Example 17, (R)-1′-(1-(Benzo[d]isoxazol-3-ylmethyl)-1H-pyrazole-4-carbonyl)-6-chloro-5-fluorospiro[benzo[d][1,3]oxazine-4,3′-piepridin]-2(1H)-one] | 37.8 |
| NS(=O)(=O)c1cccc(Cn2cc(C(=O)N3CCC[C@@]4(C3)OC(=O)Nc3ccc(Cl)c(F)c34)cn2)c1 [Example 62, (R)-3-((4-(6-chloro-5-fluoro-2-oxo-1,2-dihydrospiro[benzo[d][1,3]oxazine-4,3′-piperidine]-1′-carbonyl)-1H-pyrazol-1-yl)methyl)benzenesulfonamide] | 49.5 |
| O=C(O)COc1ccc(Cn2cc(C(=O)N3CCC[C@@]4(C3)OC(=O)Nc3ccc(Cl)c(F)c34)cn2)cc1 [Example 52, (R)-2-(4-((4-(6-Chloro-5-fluoro-2-oxo-1,2-dihydrospiro[benzo[d][1,3]oxazine-4,3′-piperidine]-1′-carbonyl)-1H-pyrazol-1-yl)methyl)phenoxy)acetic acid] | 24.1 |
| N#Cc1ccc(Cn2cc(C(=O)N3CCC[C@@]4(C3)OC(=O)Nc3ccc(Cl)c(F)c34)cn2)cc1Cl [Example 47, (R)-2-Chloro-4-((4-(6-chloro-5-fluoro-2-oxo-1,2-dihydrospiro[benzo[d][1.3]oxazine-4,3′-piperidine]-1′-carbonyl)-1H-pyrazol-1-yl)methyl)benzonitrile] | 27.1 |
| CS(=O)(=O)c1cccc(Cn2cc(C(=O)N3CCC[C@@]4(C3)OC(=O)Nc3ccc(Cl)c(F)c34)cn2)c1 [Example 63, (R)-6-chloro-5-fluoro-1′-(1-(3-(methylsulfonyl)benzyl)-1H-pyrazole-4-carbonyl)spiro[benzo[d][1,3]oxazine-4,3′-piperidin]-2(1H)-one] | 42.6 |
| O=C1Nc2ccc(Cl)c(F)c2[C@@]2(CCCN(C(=O)c3nnc(Cc4ccc5c(c4)CCO5)[nH]3)C2)O1 [Example 117, (R)-6-Chloro-1′-(5-((2,3-dihydrobenzofuran-5-yl)methyl)-4H-1,2,4-triazole-3-carbonyl)-5-fluorospiro[benzo[d][1,3]oxazine-4,3′-piperidin]-2(1H)-one] | 34.8 |
| Cc1nc(Cn2cc(C(=O)N3CCC[C@@]4(C3)OC(=O)Nc3ccc(Cl)c(F)c34)cn2)sc1C [Example 18, (R)-6-Chloro-1′-(1-((4,5-dimethylthiazol-2-yl)methyl)-1H-pyrazole-4-carbonyl)-5-fluorospiro[benzo[d][1,3]oxazine-4,3′-piperidin]-2(1H)-one] | 50.4 |
| O=C1Nc2ccc(Cl)c(F)c2[C@@]2(CCCN(C(=O)c3cnn(Cc4ccc5c(c4)CC(CO)O5)c3)C2)O1 (stereo partly drawn) [Example 58, (4R)-6-Chloro-5-fluoro-1′-(1-((2-(hydroxymethyl)-2,3-dihydrobenzofuran-5-yl)methyl)-1H-pyrazole-4-carbonyl)spiro[benzo[d][1,3]oxazine-4,3′-piperidin]-2(1H)-one] | 10.7 |
| C[C@H](c1cccc(Cl)c1)n1cc(C(=O)N2CCC[C@@]3(C2)OC(=O)Nc2ccc(Cl)c(F)c23)cn1 (single isomer, unassigned) [Example 28] | 10.4 |
| O=C1Nc2ccc(Cl)c(F)c2[C@@]2(CCCN(C(=O)c3cnn(Cc4ccc(-n5cc[nH]c5=O)cc4)c3)C2)O1 [Example 50, (R)-6-Chloro-5-fluoro-1′-(1-(4-(2-oxo-2,3-dihydro-1H-imidazol-1-yl)benzyl)-1H-pyrazole-4-carbonyl)spiro[benzo[d][1,3]oxazine-4,3′-piperidin]-2(1H)-one] | 13.7 |
| O=C1Nc2ccc(Cl)c(F)c2[C@@]2(CCCN(C(=O)c3cnn(Cc4ccc(F)c(Cl)c4)c3)C2)O1 [Example 6, (R)-6-Chloro-1′-(1-(3-chloro-4-fluorobenzyl)-1H-pyrazole-4-carbonyl)-5-fluorospiro[benzo[d][1,3]oxazine-4,3′-piperidin]-2(1H)-one] | 8 |
| CN1CCOc2cc(Cn3cc(C(=O)N4CCC[C@@]5(C4)OC(=O)Nc4ccc(Cl)c(F)c45)cn3)ccc21 [Example 51, (R)-6-Chloro-5-fluoro-1′-(1-((4-methyl-3,4-dihydro-2H-benzo[b][1,4]oxazin-7-yl)methyl)-1H-pyrazole-4-carbonyl)spiro[benzo[d][1,3]oxazine-4,3′-piperidin]-2(1H)-one] | 35.1 |
| CC[C@@H](c1ccc(F)cc1)c1nnc(C(=O)N2CCC[C@@]3(C2)OC(=O)Nc2ccc(Cl)c(F)c23)[nH]1 (single isomer, unassigned) [Example 84] | 4.5 |

More lines, now with the values ahead:

| IC50 [nM] | SMILES |
| --- | --- |
| 15.1 | O=C1Nc2ccc(Cl)c(F)c2[C@]2(CCN(C(=O)c3cnn(Cc4ccc(Cn5ccccc5=O)cn4)c3)C2)O1 [Example 133, (S)-6-Chloro-5-fluoro-1′-(1-((5-((2-oxopyridin-1(2H)-yl)methyl)pyridin-2-yl)methyl)-1H-pyrazole-4-carbonyl)spiro[benzo[d][1,3]oxazine-4,3′-pyrrolidin]-2(1H)-one] |
| 19.1 | Cc1cc(Cc2nnc(C(=O)N3CCC[C@@]4(C3)OC(=O)Nc3ccc(Cl)c(F)c34)[nH]2)cc2[nH]nnc12 [Example 123, (R)-6-Chloro-5-fluoro-1′-(5-((4-methyl-1H-benzo[d][1,2,3]triazol-6-yl)methyl)-4H-1,2,4-triazole-3-carbonyl)spiro[benzo[d][1,3]oxazine-4,3′-piperidin]-2(1H)-one] |
| 7.5 | O=C1Nc2ccc(Cl)c(F)c2[C@]2(CCN(C(=O)c3cn(Cc4ccc(Cn5ccccc5=O)cc4)nc3C(F)(F)F)C2)O1 [Example 135, (S)-6-Chloro-5-fluoro-1′-(1-(4-((2-oxopyridin-1(2H)-yl)methyl)benzyl)-3-(trifluoromethyl)-1H-pyrazole-4-carbonyl)spiro[benzo[d][1,3]oxazine-4,3′-pyrrolidin]-2(1H)-one] |
| 6.1 | O=C1Nc2ccc(Cl)c(F)c2[C@]2(CCN(C(=O)c3cnn(Cc4ccc(Cn5ccccc5=O)cc4)c3)C2)O1 [Example 132] |
| 9.4 | O=C1Nc2ccc(Cl)c(F)c2[C@@]2(CCCN(C(=O)C3(F)CCN(Cc4ccccc4)C3)C2)O1 (single isomer, unassigned) [Example 131, (R)-1′-((S or R)-1-Benzyl-3-fluoropyrrolidine-3-carbonyl)-6-chloro-5-fluorospiro[benzo[d][1,3]oxazine-4,3′-piperidin]-2(1H)-one] |
| 35.4 | O=C1Nc2ccc(Cl)c(F)c2[C@@]2(CCCN(C(=O)c3nnc(Cc4cc(F)cc(Cl)c4)[nH]3)C2)O1 [Example 121, (R)-6-Chloro-1′-(5-(3-chloro-5-fluorobenzyl)-4H-1,2,4-triazole-3-carbonyl)-5-fluorospiro[benzo[d][1,3]oxazine-4,3′-piperidin]-2(1H)-one] |
| 43.2 | O=C1Nc2ccc(Cl)c(F)c2[C@]2(CCN(C(=O)C3CCN(Cc4ccc(Cn5ccccc5=O)cc4)C3)C2)O1 (single isomer, unassigned) [Example 136] |
| 17.5 | O=C1Nc2ccc(Cl)c(F)c2[C@@]2(CCCN(C(=O)c3nnc(Cc4cc(Cl)c5nc[nH]c5c4)[nH]3)C2)O1 [Example 122, (R)-6-Chloro-1′-(5-((4-chloro-1H-benzo[d]imidazol-6-yl)methyl)-4H-1,2,4-triazole-3-carbonyl)-5-fluorospiro[benzo[d][1,3]oxazine-4,3′-piperidin]-2(1H)-one] |
| 31 | O=C1Nc2ccc(Cl)c(F)c2[C@]2(CCN(C(=O)C3CCN(Cc4ccc(Cn5ccccc5=O)cc4)C3)C2)O1 (single isomer, unassigned) [Example 137] |

— patent publication US20250099478A1, “PLASMA KALLIKREIN INHIBITORS” (Merck Sharp & Dohme LLC, priority 2022, published 2025)
